The record followed here is ChEMBL document CHEMBL2303647, “Data associated with the publication PLoS ONE, 8(3), e57888, (2013) PMID: 23505445. Compounds: GSK PKIS; Assays: NIH NCATS”.

For experiment [1], the target named is T1, Coelenterazine h 2-monooxygenase (Renilla reniformis, UniProt P27652).
T1 sequence (P27652 whole entry): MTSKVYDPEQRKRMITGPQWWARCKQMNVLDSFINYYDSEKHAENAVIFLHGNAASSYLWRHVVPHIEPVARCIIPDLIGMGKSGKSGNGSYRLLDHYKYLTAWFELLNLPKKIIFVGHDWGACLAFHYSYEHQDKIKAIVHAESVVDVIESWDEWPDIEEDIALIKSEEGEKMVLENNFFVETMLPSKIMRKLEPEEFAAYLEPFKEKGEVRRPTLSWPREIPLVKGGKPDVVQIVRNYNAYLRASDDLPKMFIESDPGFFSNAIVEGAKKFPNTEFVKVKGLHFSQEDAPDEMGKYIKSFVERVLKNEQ
Description: GSK_PKIS: Inhibition of Sea Pansy Luciferase (Data from PubChem: AID 652015) [NIH NCATS]

For experiment [2], the target named is Luciferin 4-monooxygenase (Photinus pyralis, UniProt P08659).
Sequence of Luciferin 4-monooxygenase (P08659 whole entry): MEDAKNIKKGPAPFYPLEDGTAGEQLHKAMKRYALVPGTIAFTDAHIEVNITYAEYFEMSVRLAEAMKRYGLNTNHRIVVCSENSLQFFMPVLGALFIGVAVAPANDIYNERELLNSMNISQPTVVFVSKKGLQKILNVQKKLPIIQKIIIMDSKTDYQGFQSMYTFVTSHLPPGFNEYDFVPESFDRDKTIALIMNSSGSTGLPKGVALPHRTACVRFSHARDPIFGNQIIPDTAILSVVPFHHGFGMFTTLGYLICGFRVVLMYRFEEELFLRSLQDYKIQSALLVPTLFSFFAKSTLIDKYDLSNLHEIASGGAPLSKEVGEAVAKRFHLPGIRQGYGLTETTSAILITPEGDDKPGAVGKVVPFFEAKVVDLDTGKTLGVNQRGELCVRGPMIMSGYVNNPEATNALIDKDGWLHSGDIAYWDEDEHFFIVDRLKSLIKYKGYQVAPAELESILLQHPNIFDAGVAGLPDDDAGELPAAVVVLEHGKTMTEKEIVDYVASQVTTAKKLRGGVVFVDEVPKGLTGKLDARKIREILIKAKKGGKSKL
Description: GSK_PKIS: Inhibition of Firefly Luciferase (Data from PubChem: AID 652016) [NIH NCATS]

With `NS(=O)(=O)c1ccc(N/N=C2\C(=O)Nc3ccc(C(=O)NCc4ccncc4)cc32)cc1` [GW300657X], the concentration at half-maximal activity (AC50) entry in experiment [1] and in experiment [2] was “Phenotype: Inactive; Curve_Description: None” in each case.

In the case of `O=C1Nc2ccccc2/C1=C/Nc1ccc2[nH]c(=O)[nH]c2c1` [GW284408X], the half-maximal activity concentration (AC50) entry is “Phenotype: Inactive; Curve_Description: None” in experiment [1] and 4.11 µM in experiment [2] (read-out: AC50).

For `COc1cc(N2CCN(C(C)C)CC2)ccc1Nc1nc(Nc2cccc3ncccc23)c2cc[nH]c2n1` [GSK-1511931A], the half-maximal activity concentration (AC50) in experiment [1] (read-out: AC50) is 18.3 µM; in experiment [2] (read-out: AC50), 25.9 µM.

In the case of `NC(=O)Cc1ccccc1Oc1nccc(-c2c(-c3ccc(F)cc3)ncn2C2CCNCC2)n1`, the half-maximal activity concentration (AC50) result in experiment [1] and in experiment [2] was “Phenotype: Inactive; Curve_Description: None” throughout.

For the compound `CNC(=O)c1cncc(/C=C/c2c(Cl)cccc2Cl)c1` [GW445014X], the values for the AC50 in experiment [1] (read-out: AC50) and in experiment [2] (read-out: AC50) were 23.1 µM and 16.3 µM, respectively.

Turning to `CN(c1ccc(NC(=O)NCCN2CCOCC2)cc1)c1ccnc(Nc2ccc(CS(C)(=O)=O)cc2)n1.Cl` [GW830365A], the AC50 result in experiment [1] was “Phenotype: Inactive; Curve_Description: None”; in experiment [2] (read-out: AC50), 20.6 µM.

As to `Fc1ccc(-c2nn3ncccc3c2-c2ccnc(Nc3ccc4c(c3)OCCO4)n2)cc1` [GW827099X], the AC50 result in experiment [1] was “Phenotype: Inactive; Curve_Description: None”; in experiment [2] (read-out: AC50), 18.3 µM.

Consider `CN(C)CCNC(=O)Nc1ccc(N(C)c2ccnc(Nc3ccc(CS(C)(=O)=O)cc3)n2)cc1.Cl` [GW830900A], for which the concentration at half-maximal activity (AC50) entry is “Phenotype: Inactive; Curve_Description: None” in experiment [1] and 29.1 µM in experiment [2] (read-out: AC50).

In the case of `O=C1Nc2ccccc2/C1=C/Nc1ccc(-n2cncn2)cc1` [GW301789X], the concentration at half-maximal activity (AC50) entry in experiment [1] was “Phenotype: Inactive; Curve_Description: None”; in experiment [2] (read-out: AC50) it was 18.3 µM.

On to `CCn1cc(-c2ccnc3[nH]ccc23)c(-c2cccc(NC(=O)Nc3ccc(OCc4ccccc4)cc3)c2)n1` [GSK-718429A], for which the half-maximal activity concentration (AC50) entry in experiment [1] and in experiment [2] was “Phenotype: Inactive; Curve_Description: None” in each case.

For `COc1cc(Nc2ncc(-c3ccccc3)o2)cc(OC)c1OC` [GW627512B], the AC50 entry in experiment [1] and in experiment [2] was “Phenotype: Inactive; Curve_Description: None” throughout.

Take `CCN1CCC(CC(=O)Nc2n[nH]c3nnc(-c4cccc(F)c4F)cc23)CC1.O=C(O)C(O)C(O)C(=O)O`: the AC50 entry in experiment [1] is “Phenotype: Inactive; Curve_Description: None”; in experiment [2] (read-out: AC50), 41.1 µM.

As to `CN(C)CCCn1c(-c2nonc2N)nc2cnccc21`, the half-maximal activity concentration (AC50) entry in experiment [1] and in experiment [2] was “Phenotype: Inactive; Curve_Description: None” throughout.

For `Cl.O=S(=O)(CCNCc1ccc(-c2ccc3ncnc(Nc4ccc(OCc5cccc(F)c5)c(Cl)c4)c3c2)o1)c1ccccc1` [GW633459A], the concentration at half-maximal activity (AC50) entry in experiment [1] is “Phenotype: Inactive; Curve_Description: None”; in experiment [2] (read-out: AC50) it was 29.1 µM.

With `COc1cc(C=NNc2ncnc3c2cnn3Cc2ccccc2)ccc1O` [GW643971X], the results for the AC50 entry in experiment [1] and in experiment [2] (read-out: AC50) were “Phenotype: Activator; Curve_Description: None” and 29.1 µM, respectively.

Regarding `CN1CCN(C(=O)c2ccc(NC(=O)Nc3ccc(N(C)c4ccnc(Nc5ccc(CS(C)(=O)=O)cc5)n4)cc3)cc2)CC1.Cl` [GW830263A], the concentration at half-maximal activity (AC50) result in experiment [1] was “Phenotype: Inactive; Curve_Description: None”; in experiment [2] (read-out: AC50), 9.19 µM.

For the compound `O=C1Nc2ccc(I)cc2C1=Cc1cc(Br)c(O)c(Br)c1` [GW305074X], the AC50 in experiment [1] (read-out: AC50) is 20.6 µM; in experiment [2] it was “Phenotype: Inactive; Curve_Description: None”.

As for `CC(=O)Nc1cccc(C#Cc2cncnc2Nc2ccc(OCc3cccc(F)c3)c(Cl)c2)n1` [GW794726X], the AC50 entry in experiment [1] and in experiment [2] was “Phenotype: Inactive; Curve_Description: None” in each case.

Regarding `COc1cccc(-n2ncc3c(N/N=C/c4ccc(F)cc4)ncnc32)c1` [GW817396X], the half-maximal activity concentration (AC50) in experiment [1] (read-out: AC50) was 0.0005 µM; in experiment [2] (read-out: AC50) it was 32.6 µM.

As to `CS(=O)(=O)CCNCc1ccc(-c2ccc3ncnc(Nc4ccc(OCc5ccccc5)c(Br)c4)c3c2)o1.Cl` [GW580496A], the values for the AC50 result in experiment [1] and in experiment [2] (read-out: AC50) were “Phenotype: Inactive; Curve_Description: None” and 20.6 µM, respectively.

On to `N#Cc1c(NC(=O)c2ccccc2F)sc2c1CCCC2` [GW572738X], for which the AC50 result in experiment [1] is “Phenotype: Inactive; Curve_Description: None”; in experiment [2] (read-out: AC50), 0.819 µM.

On to `COc1cc2ncn(-c3cc(O[C@@H](C)c4ccccc4Cl)c(C(N)=O)s3)c2cc1OC` [GSK-237700A], for which the AC50 entry in experiment [1] and in experiment [2] was “Phenotype: Inactive; Curve_Description: None” each time.

Turning to `CC(C)c1ccc(-c2cc(-c3c[nH]nc3-c3ccccn3)ccn2)cc1` [GW682841X], the concentration at half-maximal activity (AC50) in experiment [1] (read-out: AC50) is 1.46 µM; in experiment [2], “Phenotype: Activator; Curve_Description: None”.

On to `Cl.NC(=O)c1ccc(-c2nc(-c3ccccn3)c(-c3ccc4c(c3)OCO4)[nH]2)cc1`, for which the AC50 result in experiment [1] and in experiment [2] was “Phenotype: Inactive; Curve_Description: None” in each case.

Regarding `COc1cccc(COc2cc(-n3cnc4ccccc43)sc2C(N)=O)c1` [GW804482X], the AC50 in experiment [1] (read-out: AC50) was 20.6 µM; in experiment [2], “Phenotype: Inactive; Curve_Description: None”.

For `COc1cc2c(cc1Nc1nc(Nc3ccsc3C(N)=O)c3cc[nH]c3n1)N(C(=O)CN(C)C)CCC2` [GSK-2110236A], the AC50 in experiment [1] (read-out: AC50) is 46.1 µM; in experiment [2] it was “Phenotype: Inactive; Curve_Description: None”.

Take `Cl.NCc1ccc(-c2nc(-c3ccc(Cl)c(O)c3)c(-c3ccncc3)[nH]2)cc1`: the concentration at half-maximal activity (AC50) entry in experiment [1] and in experiment [2] was “Phenotype: Inactive; Curve_Description: None” each time.

Turning to `NC(=O)c1sc(-n2cnc3ccc(C(F)(F)F)cc32)cc1OCc1ccccc1Br` [GW853606X], the AC50 entry in experiment [1] and in experiment [2] was “Phenotype: Inactive; Curve_Description: None” each time.

As to `CC(C)c1ccc2c(c1)NC(=O)/C2=N/Nc1ccc(S(N)(=O)=O)cc1` [GW300653X], the AC50 result in experiment [1] and in experiment [2] was “Phenotype: Inactive; Curve_Description: None” in each case.

`Cc1ccc(O)cc1Nc1ccnc2cc(-c3ccccn3)ccc12` [GW440139A]: the results for the AC50 in experiment [1] (read-out: AC50) and in experiment [2] (read-out: AC50) were 23.1 µM and 20.6 µM, respectively.

As for `CCS(=O)(=O)c1ccc(OC)c(Nc2ncc(-c3cccc(C(C)=O)c3)o2)c1` [GW621431X], the AC50 entry in experiment [1] and in experiment [2] was “Phenotype: Inactive; Curve_Description: None” in each case.

In the case of `Fc1cccc(COc2ccc(Nc3ncnc4sc(-c5ccco5)cc34)cc2Cl)c1` [GSK-969786A], the AC50 entry in experiment [1] and in experiment [2] was “Phenotype: Inactive; Curve_Description: None” in each case.

For `Cl.Fc1cccc(COc2ccc(Nc3ncnc4cc(-c5ccc[nH]5)sc34)cc2Cl)c1` [GW693881A], the AC50 entry in experiment [1] and in experiment [2] was “Phenotype: Inactive; Curve_Description: None” in each case.

The term AC50 denotes the midpoint of the concentration-response curve, whichever way the signal moves.
